Experimental data from patent US20010025053A1, “Use of nitric oxid synthase inhibitors for the treatment of diabetes” (Smith Kline Beecham p.l.c., priority 1997, published 2001).

Test system: obese db/db mouse
Test: obese db/db mouse model of type 2 non-insulin dependent diabetes
Type: in vivo
Settings: obese db/db mice
Description: The obese db/db mouse is a genetic model of type 2 non-insulin dependent diabetes which is both insulin resistant and hyperglycaemic. Male animals were obtained at 6 weeks of age. Blood samples were taken by tail tip snip for measurement of pre-treatment blood glucose. Animals were allocated into treated and control groups such that the mean and standard deviation of the fasting blood glucose concentrations of each group was similar.
On day 0 of the study a group of obese animals and their lean litter mates were killed for measurement of baseline biochemistry and histology. In addition one group of animals (control; n=14) were fed a standard diet and a further group received aminoguanidine (500 mg/kg; n=14) in the same diet. Animals were allowed free access to food and water and their intake measured daily. At weekly intervals 24 hr urine output was also measured. Mice (n=7) were killed at 30 days and 85 days from commencement of treatment. Blood was taken for measurement of glucose and insulin concentrations and the pancreas removed for histological analysis and for measurement of pancreatic insulin.

[1] = from day 63 compared to day 7, FIG. 1

In the case of `N=C(N)NN` [Aminoguanidine, Hydrazinecarboximidamide], the islet morphology (day 30 of treatment, histology) was “normal islet morphology was preserved”, the islet insulin content (day 30 of treatment, vs untreated controls) was “greater” and the urinary glucose excretion (from day 35, vs untreated, FIG. 1) was “lower”. The “increase in urine output (polyuria)” value [1] was “prevented”, the “increase in water intake (polydipsia)” value [1] was “prevented” and the “pancreatic insulin content relative to untreated animals” value (treated vs untreated) was “twice that of the untreated animals”.
